# Measured values from ChEMBL document CHEMBL5465560, “Selectivity Literature for EUbOPEN Chemogenomic Library” (2024).
# Tests used:
# [1] = biological target: Protein kinase C alpha type (Homo sapiens, UniProt P17252); assay: Selectivity interaction (Kinase screening (Upstate/Millipore)) EUB0000604a PRKCA
# [2] = biological target: T1, Mitogen-activated protein kinase 13 (Homo sapiens) (UniProt O15264); assay: Selectivity interaction (ActivX KiNativ screen (kinase selectivity in THP-1 cell lysates)) EUB0000639a MAPK13; assay type: subcellular; details: lysate
# T1 sequence (whole entry): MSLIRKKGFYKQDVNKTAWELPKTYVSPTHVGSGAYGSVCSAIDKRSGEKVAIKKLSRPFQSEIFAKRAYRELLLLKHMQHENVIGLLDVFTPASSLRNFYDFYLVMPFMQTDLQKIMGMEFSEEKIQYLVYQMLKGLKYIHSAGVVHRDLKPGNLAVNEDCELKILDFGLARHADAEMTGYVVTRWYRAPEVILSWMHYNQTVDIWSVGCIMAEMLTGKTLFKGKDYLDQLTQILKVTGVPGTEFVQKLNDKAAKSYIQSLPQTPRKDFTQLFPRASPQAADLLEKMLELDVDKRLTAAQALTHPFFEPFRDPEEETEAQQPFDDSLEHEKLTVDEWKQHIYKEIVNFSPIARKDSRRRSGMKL
# [3] = biological target: T2, Mitogen-activated protein kinase kinase kinase kinase 2 (Homo sapiens) (UniProt Q12851); assay: Selectivity interaction (KinomeScan (DiscoverX)) EUB0000695a MAP4K2; details: at 100 nM
# T2 sequence (whole entry): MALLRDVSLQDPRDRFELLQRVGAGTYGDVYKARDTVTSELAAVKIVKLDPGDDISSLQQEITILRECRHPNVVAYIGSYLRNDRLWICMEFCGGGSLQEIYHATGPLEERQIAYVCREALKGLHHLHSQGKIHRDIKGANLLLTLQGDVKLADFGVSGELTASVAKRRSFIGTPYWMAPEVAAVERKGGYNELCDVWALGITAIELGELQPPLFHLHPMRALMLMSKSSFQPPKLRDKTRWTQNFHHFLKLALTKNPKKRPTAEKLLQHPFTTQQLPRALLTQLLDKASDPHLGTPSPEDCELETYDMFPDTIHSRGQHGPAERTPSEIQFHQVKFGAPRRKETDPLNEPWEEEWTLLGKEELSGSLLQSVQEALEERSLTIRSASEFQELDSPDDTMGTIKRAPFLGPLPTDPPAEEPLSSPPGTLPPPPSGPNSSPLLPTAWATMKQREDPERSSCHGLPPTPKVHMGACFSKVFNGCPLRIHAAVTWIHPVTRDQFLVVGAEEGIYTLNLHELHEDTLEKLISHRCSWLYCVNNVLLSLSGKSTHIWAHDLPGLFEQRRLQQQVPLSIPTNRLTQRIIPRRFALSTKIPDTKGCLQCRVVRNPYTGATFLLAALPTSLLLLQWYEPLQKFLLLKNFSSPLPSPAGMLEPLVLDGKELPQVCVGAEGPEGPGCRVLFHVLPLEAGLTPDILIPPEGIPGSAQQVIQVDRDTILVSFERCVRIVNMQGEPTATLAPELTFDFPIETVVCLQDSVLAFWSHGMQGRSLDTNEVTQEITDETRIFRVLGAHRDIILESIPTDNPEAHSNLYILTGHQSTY
# [4] = biological target: Tyrosine-protein kinase JAK2 (Homo sapiens, UniProt O60674); assay: Selectivity interaction (KinomeScan (DiscoverX)) EUB0000045b JAK2
# [5] = biological target: T3, Cyclin-dependent kinase 11A (Homo sapiens) (UniProt Q9UQ88); assay: Selectivity interaction (KinomeScan (DiscoverX)) EUB0000655a CDK11A; details: at 10 µM
# T3 sequence (whole entry): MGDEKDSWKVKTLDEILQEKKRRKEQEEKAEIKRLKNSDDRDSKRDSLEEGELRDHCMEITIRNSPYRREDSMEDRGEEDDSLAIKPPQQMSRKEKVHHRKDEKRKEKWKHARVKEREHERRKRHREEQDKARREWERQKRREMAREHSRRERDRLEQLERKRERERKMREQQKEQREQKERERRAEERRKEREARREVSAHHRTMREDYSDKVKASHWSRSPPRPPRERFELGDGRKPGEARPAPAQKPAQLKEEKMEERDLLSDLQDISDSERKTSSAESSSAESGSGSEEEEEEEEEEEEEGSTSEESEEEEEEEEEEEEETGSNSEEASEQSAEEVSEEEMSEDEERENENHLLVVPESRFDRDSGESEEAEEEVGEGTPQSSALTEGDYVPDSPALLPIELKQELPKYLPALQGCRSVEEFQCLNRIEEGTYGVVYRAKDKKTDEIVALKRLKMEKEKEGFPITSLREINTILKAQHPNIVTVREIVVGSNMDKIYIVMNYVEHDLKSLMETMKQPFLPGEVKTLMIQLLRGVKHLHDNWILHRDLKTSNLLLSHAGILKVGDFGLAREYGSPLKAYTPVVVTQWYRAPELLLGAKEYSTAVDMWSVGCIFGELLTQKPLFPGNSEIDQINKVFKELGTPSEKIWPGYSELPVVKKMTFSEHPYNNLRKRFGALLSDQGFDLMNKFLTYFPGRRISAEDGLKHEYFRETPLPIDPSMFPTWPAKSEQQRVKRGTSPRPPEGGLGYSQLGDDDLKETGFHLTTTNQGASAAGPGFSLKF
# [6] = biological target: Casein kinase II subunit alpha (Homo sapiens, UniProt P68400); assay: Selectivity interaction (Kinase panel (DSF assay)) EUB0001559a CSNK2A1
# [7] = biological target: Casein kinase II subunit alpha' (Homo sapiens) (UniProt P19784); assay: Selectivity interaction (SelectScreen profiling (Invitrogen)) EUB0000607a CSNK2A2; details: at 2 µM
# [8] = biological target: T4, Dual specificity mitogen-activated protein kinase kinase 4 (Homo sapiens) (UniProt P45985); assay: Selectivity interaction (Kinase panel (KiNativ target engagement assay in Jurkat cells)) EUB0001635a MAP2K4; assay type: cell-based; details: at 1 µM
# T4 sequence (whole entry): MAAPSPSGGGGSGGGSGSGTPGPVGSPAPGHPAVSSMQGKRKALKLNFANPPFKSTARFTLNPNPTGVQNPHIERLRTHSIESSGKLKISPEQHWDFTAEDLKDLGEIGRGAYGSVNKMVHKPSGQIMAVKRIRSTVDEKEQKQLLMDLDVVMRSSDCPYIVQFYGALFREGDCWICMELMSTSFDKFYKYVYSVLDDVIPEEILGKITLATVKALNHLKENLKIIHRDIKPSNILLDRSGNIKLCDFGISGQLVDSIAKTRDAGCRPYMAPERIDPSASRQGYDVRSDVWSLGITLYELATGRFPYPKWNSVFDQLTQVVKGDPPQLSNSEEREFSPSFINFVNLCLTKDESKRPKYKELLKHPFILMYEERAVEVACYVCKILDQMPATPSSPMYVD
# Chain of Tyrosine-protein kinase JAK2 (O60674 whole entry): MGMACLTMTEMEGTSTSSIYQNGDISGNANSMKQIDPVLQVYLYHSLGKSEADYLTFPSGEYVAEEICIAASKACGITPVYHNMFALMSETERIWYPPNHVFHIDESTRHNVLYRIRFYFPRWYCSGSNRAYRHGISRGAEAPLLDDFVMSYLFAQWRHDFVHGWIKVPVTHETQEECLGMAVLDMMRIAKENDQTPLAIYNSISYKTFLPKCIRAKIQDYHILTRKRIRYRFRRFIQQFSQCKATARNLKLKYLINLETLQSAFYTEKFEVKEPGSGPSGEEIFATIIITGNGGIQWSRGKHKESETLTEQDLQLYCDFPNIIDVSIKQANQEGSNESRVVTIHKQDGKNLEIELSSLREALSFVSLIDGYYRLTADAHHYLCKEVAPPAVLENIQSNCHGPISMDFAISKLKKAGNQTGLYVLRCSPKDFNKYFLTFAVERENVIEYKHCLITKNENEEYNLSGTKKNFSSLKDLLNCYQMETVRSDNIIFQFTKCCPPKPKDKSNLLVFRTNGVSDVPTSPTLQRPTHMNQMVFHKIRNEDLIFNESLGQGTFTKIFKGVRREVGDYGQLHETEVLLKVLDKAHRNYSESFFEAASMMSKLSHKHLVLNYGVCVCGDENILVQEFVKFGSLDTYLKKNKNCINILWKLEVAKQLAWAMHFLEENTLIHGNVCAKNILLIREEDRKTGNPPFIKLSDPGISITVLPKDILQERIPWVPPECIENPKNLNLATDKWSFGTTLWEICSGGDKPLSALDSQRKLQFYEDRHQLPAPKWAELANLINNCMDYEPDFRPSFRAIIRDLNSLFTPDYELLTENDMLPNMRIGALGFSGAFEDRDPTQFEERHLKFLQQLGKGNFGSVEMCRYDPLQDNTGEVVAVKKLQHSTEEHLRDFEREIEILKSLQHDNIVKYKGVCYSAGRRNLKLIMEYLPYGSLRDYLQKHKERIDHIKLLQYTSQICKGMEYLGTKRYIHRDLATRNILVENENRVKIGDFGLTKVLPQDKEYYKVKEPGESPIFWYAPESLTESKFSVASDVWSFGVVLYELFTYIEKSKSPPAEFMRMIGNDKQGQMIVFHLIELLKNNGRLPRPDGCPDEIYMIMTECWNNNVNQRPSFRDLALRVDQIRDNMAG
# Chain of Casein kinase II subunit alpha' (Homo sapiens) (P19784 whole entry, looked up): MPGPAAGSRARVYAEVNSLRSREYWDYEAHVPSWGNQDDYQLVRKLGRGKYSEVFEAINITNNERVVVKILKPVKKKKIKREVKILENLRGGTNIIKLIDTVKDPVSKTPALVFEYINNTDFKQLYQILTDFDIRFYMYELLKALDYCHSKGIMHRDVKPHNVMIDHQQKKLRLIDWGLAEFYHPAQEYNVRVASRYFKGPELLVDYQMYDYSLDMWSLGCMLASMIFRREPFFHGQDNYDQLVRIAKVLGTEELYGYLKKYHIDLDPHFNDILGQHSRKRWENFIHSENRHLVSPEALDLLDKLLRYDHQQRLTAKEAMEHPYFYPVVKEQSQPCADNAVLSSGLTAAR
# Chain of Casein kinase II subunit alpha (P68400 whole entry, looked up): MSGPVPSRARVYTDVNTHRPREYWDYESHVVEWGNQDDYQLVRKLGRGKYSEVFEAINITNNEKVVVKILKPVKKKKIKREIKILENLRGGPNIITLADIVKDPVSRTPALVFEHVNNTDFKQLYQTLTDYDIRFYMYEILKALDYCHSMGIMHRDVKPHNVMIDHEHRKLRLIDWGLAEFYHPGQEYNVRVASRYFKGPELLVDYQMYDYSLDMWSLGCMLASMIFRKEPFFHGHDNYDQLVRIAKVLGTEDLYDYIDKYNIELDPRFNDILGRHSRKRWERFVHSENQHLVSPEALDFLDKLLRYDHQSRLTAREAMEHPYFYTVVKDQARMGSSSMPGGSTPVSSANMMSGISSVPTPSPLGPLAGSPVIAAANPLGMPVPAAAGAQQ
structure (smiles),measurement,setting,value
Cc1cnc(Nc2ccc(F)cc2Cl)nc1-c1c[nH]c(C(=O)N[C@H](CO)c2cccc(Cl)c2)c1,% of inhibition,[1],12%
CC[C@@H]1[C@H](F)C(=O)N[C@@H]1COc1nccc2cc(C(N)=O)c(OC)cc12 [ZIMLOVISERTIB],% of inhibition,[2]; at 0.01 µM,-4.4%
same,% of inhibition,[2]; at 0.04 µM,6%
same,% of inhibition,[2]; at 0.2 µM,-3.6%
same,% of inhibition,[2]; at 1 µM,7.4%
same,% of inhibition,[2]; at 5 µM,20.3%
Cc1cc(F)c(C(=O)Nc2cccc(-c3nncn3C(C)C)n2)cc1-n1cnc(C2CC2)c1,% of control,[3],100%
C=CC(=O)Nc1cc(-n2c(=O)ccc3cnc4ccc(-c5ccc(NS(C)(=O)=O)cc5)cc4c32)ccc1C,% of control,[4]; at 1 µM,86%
same,% of control,[4]; at 10 µM,100%
CN(C)CCOc1ccc(-c2nc(-c3ccncc3)c(-c3ccc4c(c3)CC/C4=N\O)[nH]2)cc1,% of control,[5],86%
CN(C(=O)c1cnn2cccnc12)c1cc2c(cc1N1CCOCC1)C(=O)N(C[C@@H](F)C(C)(C)O)C2,dTM,[6],-0.4 K
CNC(=O)Nc1ccc(-c2nc(N3CC4CCC(C3)O4)c3cnn(C4CCC5(CC4)OCCO5)c3n2)cc1,% of inhibition,[7],3%
C=CC(=O)Nc1ccc(C(=O)Nc2[nH]nc3c2CN(C(=O)N[C@H](CN(C)C)c2ccccc2)C3(C)C)cc1,% of engagement,[8],3.9%
